Experimental data reported in ChEMBL document CHEMBL1201862, “PubChem BioAssay data set” (2004).
Activity calls are given as the source filed them.

What was measured:
[1] = biological target: Mitogen-activated protein kinase 10 (Homo sapiens, UniProt P53779); assay: Dose response biochemical screening assay for inhibitors of c-Jun N-Terminal Kinase 3 (JNK3). [Related pubchem assays: 746 ]
[2] = biological target: Heat shock protein HSP 90-alpha (Homo sapiens, UniProt P07900); assay type: functional, organism-based
[3] = biological target: T1, Cytochrome P450 2C9 (Homo sapiens, UniProt P11712)
[4] = biological target: Cytochrome P450 2D6 (Homo sapiens, UniProt P10635);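 further: CYP2D6 member of a cytochrome P450 panel assay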
[5] = biological target: T1, Cytochrome P450 2C9; remark: listed apart in the source
[6] = biological target: FAD-linked sulfhydryl oxidase ALR (Homo sapiens, UniProt P55789); assay: ALR-catalysed DTT oxidation blockers – biochemical, H2O2 detection, luminescence, cherry-pick, dose response (AID 493248)
[7] = biological target: Large T antigen (Simian virus 40, UniProt P03070); assay type: functional, Betapolyomavirus macacae;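 further: Confirmatory-stage PubChem screen for compounds that inhibit SV40 T antigen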
[8] = biological target: Induced myeloid leukemia cell differentiation protein Mcl-1 (Homo sapiens, UniProt Q07820); assay type: functional
[9] = biological target: Genome polyprotein (dengue virus type 2, UniProt P29990); assay: flavivirus cap methylation enzyme inhibition – biochemical, confirmation dose response, primary screen (AID 588689); assay type: functional
[10] = biological target: T2, Hexokinase HKDC1 (Homo sapiens, UniProt Q2TB90); assay: inhibition of HKDC1 glucose phosphorylation – biochemical, W721R variant, dose response (AID 504729); assay type: functional
T2 sequence (Q2TB90 whole entry): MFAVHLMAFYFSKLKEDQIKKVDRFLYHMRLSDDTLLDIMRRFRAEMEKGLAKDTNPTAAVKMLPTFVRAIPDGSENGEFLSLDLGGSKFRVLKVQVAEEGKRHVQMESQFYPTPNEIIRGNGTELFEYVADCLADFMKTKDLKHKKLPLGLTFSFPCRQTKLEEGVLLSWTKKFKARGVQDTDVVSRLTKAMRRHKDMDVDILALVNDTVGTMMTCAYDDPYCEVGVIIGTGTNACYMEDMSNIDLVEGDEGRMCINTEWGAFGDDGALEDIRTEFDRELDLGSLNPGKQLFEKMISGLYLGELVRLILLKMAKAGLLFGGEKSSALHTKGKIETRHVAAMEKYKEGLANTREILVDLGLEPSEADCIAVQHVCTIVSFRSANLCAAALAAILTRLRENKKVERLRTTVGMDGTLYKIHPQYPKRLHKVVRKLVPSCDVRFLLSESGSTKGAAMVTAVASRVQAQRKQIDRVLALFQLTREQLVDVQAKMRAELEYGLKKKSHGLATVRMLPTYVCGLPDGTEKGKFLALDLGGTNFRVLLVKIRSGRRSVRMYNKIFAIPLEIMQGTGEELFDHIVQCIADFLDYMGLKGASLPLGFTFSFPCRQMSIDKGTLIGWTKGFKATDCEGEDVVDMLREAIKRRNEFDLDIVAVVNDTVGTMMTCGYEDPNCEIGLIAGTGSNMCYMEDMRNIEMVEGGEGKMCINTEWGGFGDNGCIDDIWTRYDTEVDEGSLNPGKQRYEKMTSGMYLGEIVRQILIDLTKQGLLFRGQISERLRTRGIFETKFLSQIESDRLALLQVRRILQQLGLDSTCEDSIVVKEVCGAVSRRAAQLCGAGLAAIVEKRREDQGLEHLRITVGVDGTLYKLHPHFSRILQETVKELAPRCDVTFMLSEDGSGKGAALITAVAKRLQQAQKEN

[11] = reduction of Shn3 3'UTR-driven luciferase in osteoblasts – cell-based, Clone20 osteoblasts, firefly luciferase, cherry-picked, dose response (AID 624132); assay type: functional;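 further: firefly luciferase luminescence from reporter carrying the Shn3 3'UTR in osteoblasts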
[12] = loss of viability in HepG2 cells – cell-based, CellTiter-Glo, cherry-picked, cytotoxicity control for Shn3 inhibitor project, dose response (AID 624134); assay type: functional
[13] = non-specific 3'UTR reporter inhibition in Clone20-Shn3RL – cell-based, Renilla luciferase, cherry-picked, counter-screen for Shn3 inhibitor project, dose response (AID 624133); assay type: functional
[14] = test system: INS1; assay: INS-1E survival protection against cytokine death – cell-based, luminescence, retest, dose response (AID 449756); assay type: functional; settings: Rattus norvegicus;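 further: cell death triggered by IL-1 beta plus TNF-alpha plus IFN-gamma mixture; protective hits raise ATP signal compared with cytokine alone wells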
[15] = test system: HEK293; assay: cells; settings: Homo sapiens
[16] = test system: HEK293; assay: cells; settings: Homo sapiens; remark: listed apart in the source
[17] = biological target: T3, Cytochrome P450 1A2 (Homo sapiens, UniProt P05177);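 further: PubChem cytochrome P450 panel assay, CYP1A2 panel member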
T3 sequence (P05177 whole entry): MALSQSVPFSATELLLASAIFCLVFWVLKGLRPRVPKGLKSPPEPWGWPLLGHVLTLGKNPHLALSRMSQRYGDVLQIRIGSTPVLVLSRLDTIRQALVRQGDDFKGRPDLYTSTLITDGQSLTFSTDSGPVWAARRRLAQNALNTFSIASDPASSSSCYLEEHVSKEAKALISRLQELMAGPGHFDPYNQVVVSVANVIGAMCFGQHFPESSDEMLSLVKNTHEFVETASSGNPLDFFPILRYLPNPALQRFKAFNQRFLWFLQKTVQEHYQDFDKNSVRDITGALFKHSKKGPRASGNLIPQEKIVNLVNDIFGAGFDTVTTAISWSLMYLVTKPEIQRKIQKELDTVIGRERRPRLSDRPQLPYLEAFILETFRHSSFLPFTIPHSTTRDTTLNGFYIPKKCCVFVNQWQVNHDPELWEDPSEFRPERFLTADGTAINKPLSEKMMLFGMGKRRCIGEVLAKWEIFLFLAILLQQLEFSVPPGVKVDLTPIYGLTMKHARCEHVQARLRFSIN

[18] = biological target: Cytochrome P450 3A4 (Homo sapiens, UniProt P08684);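 further: CYP3A4 tested as one member of a cytochrome P450 panel screen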
[19] = biological target: T4, Fatty acid synthase (Homo sapiens, UniProt P49327); assay: inhibition of human FAS-TE enzyme activity – biochemical, endpoint fluorescence intensity, uHTS hits, dose response (AID 624327); assay type: functional;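 further: fluorescence from hydrolysis of an O-methyl fluorescein acyl ester substrate by the enzyme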
[20] = biological target: T4, Fatty acid synthase; assay: inhibition of human FAS-TE enzyme activity – biochemical, kinetic fluorescence intensity, dose response (AID 624326); assay type: functional;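 further: rate of fluorescence rise from hydrolysis of a fluorogenic O-methyl fluorescein ester substrate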
[21] = biological target: T5, RNA-binding protein pos-1 (Caenorhabditis elegans, UniProt G5EF15); assay: disruptors of C. elegans POS-1 RNA interaction – biochemical, fluorescence polarization, dose response (AID 1964);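 further: purified POS-1 fused to maltose binding protein made in E. coli; potency of compounds blocking POS-1 binding to fluorescent RNA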
T5 sequence (G5EF15 whole entry): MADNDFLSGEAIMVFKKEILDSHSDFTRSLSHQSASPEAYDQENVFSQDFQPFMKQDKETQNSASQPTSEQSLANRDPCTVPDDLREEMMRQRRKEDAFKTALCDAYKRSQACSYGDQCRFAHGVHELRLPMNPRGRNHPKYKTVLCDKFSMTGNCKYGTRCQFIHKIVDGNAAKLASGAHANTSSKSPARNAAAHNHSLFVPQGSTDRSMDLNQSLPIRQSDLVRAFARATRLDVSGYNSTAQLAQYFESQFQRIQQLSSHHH

[22] = biological target: Paired box protein Pax-8 (Homo sapiens, UniProt Q06710); assay: PAX8 transcriptional activity inhibition in RMG-I – RMG-I cells, luciferase, cherry-pick, dose response (AID 687027); assay type: functional, cell-based;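 further: luciferase reporter driven by Pax8 target thyroperoxidase promoter measured by SteadyGlo luminescence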
[23] = biological target: T6, Zinc finger protein mex-5 (Caenorhabditis elegans, UniProt Q9XUB2); assay: potency of MEX-5 RNA-binding blockers – biochemical, C. elegans, fluorescence polarization, dose response (AID 1960)
T6 sequence (Q9XUB2 whole entry): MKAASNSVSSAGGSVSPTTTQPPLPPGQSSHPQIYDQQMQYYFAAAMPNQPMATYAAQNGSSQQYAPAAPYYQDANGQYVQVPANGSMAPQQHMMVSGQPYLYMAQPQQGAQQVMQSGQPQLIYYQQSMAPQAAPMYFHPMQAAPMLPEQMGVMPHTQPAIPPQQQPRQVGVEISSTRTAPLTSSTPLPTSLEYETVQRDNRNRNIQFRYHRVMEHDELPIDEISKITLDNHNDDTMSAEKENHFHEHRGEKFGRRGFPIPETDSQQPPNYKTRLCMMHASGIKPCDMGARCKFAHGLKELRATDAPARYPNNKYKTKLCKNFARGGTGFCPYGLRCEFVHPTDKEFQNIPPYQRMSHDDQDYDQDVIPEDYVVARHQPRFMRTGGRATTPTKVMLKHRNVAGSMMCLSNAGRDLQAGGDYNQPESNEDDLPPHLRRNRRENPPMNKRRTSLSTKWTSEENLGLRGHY

T1 sequence (P11712 whole entry): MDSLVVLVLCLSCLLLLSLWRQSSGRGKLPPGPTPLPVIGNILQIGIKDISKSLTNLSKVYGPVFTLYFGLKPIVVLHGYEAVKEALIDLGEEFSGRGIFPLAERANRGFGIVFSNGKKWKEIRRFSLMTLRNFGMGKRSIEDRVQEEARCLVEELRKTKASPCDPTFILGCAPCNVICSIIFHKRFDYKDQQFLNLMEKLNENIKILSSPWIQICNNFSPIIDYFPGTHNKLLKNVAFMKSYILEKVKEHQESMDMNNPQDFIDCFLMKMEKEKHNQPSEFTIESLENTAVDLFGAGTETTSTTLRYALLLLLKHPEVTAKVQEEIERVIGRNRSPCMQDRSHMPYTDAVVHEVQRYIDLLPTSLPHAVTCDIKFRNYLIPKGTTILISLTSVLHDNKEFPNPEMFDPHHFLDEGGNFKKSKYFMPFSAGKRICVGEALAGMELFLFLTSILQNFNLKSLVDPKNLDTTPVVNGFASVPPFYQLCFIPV
Sequence of Mitogen-activated protein kinase 10 (P53779 whole entry): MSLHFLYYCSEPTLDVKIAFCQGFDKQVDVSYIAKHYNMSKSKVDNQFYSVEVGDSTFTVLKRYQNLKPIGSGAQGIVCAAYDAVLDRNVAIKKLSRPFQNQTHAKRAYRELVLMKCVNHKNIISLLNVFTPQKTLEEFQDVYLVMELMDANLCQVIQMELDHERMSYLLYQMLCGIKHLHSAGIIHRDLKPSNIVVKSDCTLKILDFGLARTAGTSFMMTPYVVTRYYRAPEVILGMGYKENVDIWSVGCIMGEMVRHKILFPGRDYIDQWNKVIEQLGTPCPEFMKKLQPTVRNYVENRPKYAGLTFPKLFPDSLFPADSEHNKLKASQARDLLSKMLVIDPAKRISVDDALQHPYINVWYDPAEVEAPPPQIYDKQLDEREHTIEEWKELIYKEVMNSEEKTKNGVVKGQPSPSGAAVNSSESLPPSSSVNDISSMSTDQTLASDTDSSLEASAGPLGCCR
Sequence of Induced myeloid leukemia cell differentiation protein Mcl-1 (Q07820 whole entry): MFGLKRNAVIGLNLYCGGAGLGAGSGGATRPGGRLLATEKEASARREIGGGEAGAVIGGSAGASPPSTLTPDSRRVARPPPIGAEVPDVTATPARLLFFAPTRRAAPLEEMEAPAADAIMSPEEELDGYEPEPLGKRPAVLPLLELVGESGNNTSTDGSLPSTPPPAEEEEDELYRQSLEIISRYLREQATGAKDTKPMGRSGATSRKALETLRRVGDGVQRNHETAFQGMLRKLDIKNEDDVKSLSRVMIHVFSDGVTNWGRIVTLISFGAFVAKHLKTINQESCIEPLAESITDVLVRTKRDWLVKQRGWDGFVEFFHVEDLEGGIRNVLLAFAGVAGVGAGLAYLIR
Sequence of Cytochrome P450 2D6 (P10635 whole entry): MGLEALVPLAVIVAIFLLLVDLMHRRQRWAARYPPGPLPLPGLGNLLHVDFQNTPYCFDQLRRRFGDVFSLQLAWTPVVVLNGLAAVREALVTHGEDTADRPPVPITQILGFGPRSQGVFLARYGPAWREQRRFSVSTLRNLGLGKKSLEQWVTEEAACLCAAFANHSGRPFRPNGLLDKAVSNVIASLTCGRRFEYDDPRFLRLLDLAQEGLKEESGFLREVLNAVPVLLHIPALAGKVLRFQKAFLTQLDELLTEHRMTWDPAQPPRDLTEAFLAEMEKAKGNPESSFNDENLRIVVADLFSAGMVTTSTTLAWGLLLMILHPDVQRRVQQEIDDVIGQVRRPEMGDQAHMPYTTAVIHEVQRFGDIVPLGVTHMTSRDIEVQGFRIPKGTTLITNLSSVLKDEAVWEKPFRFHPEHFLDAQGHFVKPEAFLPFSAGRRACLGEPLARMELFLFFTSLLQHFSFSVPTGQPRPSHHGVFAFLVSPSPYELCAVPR
Sequence of Large T antigen (P03070 whole entry): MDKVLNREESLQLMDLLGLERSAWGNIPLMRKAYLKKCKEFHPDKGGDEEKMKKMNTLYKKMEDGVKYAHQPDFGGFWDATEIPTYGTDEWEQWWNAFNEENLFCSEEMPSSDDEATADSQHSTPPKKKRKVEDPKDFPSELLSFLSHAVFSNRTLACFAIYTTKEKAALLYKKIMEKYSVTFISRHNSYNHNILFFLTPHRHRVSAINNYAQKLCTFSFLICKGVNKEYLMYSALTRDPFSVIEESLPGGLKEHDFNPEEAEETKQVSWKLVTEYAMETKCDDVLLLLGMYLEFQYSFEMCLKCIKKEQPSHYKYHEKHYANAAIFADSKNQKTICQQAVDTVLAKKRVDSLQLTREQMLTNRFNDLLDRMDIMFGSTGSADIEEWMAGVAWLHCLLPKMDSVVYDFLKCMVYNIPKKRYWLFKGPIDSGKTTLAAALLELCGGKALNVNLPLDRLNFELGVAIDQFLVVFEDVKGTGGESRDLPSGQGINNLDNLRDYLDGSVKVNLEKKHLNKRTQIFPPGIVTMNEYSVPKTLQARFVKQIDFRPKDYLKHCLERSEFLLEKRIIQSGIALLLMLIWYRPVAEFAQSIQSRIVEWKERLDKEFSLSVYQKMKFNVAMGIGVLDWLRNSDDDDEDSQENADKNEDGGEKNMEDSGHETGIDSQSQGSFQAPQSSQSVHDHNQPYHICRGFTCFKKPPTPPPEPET
T4 sequence (P49327 whole entry): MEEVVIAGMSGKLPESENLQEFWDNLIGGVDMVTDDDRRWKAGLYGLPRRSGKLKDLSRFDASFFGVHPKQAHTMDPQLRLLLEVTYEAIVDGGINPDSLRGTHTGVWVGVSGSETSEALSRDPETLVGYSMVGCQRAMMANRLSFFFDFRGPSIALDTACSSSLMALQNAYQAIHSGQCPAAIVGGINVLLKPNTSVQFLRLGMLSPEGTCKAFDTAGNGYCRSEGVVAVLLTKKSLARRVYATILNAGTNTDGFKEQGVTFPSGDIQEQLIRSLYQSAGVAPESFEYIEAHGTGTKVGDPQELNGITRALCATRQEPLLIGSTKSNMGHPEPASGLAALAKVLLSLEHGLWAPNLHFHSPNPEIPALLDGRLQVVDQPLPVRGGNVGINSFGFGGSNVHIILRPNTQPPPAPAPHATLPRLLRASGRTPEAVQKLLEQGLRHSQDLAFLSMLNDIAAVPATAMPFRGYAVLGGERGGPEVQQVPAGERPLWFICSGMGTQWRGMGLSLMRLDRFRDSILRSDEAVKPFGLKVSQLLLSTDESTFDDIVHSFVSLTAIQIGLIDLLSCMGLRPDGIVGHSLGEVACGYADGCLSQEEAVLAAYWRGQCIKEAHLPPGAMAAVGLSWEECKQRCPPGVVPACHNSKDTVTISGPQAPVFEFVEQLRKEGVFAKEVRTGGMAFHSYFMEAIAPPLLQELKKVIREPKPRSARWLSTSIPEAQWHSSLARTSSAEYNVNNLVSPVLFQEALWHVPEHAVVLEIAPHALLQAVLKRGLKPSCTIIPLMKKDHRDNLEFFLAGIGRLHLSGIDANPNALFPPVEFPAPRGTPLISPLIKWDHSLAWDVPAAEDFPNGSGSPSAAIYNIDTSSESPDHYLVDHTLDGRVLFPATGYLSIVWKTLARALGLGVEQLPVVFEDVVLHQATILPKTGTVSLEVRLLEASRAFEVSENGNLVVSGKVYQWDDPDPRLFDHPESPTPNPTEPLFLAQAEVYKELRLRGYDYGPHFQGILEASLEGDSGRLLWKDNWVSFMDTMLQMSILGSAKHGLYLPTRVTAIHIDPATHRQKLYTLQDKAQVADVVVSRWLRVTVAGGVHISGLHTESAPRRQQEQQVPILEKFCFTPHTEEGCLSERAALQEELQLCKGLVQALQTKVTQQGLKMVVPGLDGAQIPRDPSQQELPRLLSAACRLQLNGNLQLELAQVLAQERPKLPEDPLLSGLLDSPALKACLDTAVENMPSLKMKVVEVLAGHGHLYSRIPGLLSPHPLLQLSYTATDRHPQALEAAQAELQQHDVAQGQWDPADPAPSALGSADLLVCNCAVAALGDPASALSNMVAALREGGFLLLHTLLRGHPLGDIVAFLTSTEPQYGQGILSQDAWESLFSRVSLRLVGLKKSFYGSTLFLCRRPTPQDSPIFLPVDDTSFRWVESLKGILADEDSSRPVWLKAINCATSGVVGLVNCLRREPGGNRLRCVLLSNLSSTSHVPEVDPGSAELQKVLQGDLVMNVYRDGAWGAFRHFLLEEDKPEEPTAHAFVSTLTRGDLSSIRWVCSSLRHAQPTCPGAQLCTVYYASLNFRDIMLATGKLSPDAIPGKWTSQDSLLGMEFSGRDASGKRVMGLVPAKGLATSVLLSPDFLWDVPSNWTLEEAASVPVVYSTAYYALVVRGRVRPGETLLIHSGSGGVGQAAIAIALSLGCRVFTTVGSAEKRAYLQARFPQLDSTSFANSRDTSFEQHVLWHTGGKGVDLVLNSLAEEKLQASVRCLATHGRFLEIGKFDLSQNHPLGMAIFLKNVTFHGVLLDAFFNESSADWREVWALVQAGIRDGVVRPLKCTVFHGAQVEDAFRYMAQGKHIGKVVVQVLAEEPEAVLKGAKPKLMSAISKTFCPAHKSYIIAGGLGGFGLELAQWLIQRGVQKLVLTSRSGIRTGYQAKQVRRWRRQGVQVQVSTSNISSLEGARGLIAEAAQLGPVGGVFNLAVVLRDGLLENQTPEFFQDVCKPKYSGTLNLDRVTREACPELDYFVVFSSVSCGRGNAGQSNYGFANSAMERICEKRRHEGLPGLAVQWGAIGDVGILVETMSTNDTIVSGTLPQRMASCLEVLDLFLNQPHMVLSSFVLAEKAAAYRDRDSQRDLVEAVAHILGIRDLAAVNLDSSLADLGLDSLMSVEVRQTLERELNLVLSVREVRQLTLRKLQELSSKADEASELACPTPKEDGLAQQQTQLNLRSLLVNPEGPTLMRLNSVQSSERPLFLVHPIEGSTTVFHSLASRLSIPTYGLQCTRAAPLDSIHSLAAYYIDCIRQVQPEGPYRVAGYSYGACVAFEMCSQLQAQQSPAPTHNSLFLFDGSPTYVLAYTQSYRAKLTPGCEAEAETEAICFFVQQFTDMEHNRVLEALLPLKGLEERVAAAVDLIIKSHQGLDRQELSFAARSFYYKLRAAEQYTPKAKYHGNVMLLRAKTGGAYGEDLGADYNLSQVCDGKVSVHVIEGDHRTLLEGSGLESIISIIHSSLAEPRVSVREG

Structure (SMILES): Cc1cc(NC(=O)COC(=O)c2[nH]nc3ccccc23)no1
- IC50 [1]: 62.7 µM (not active)

Structure (SMILES): CCN(CC)N=Nc1[nH]nc2nc(C)cc(C)c12
- AC50 [2]: 2.42 µM (active)
- AC50 [3]: 17.8 µM (inconclusive)
- AC50 [4]: 12.6 µM (inconclusive)

Structure (SMILES): CCN(CC)c1ccc(NC(=O)c2cnn(CC)c2)cc1
- AC50 [5]: inconclusive
- AC50 [6]: 0.215 µM (active)
- IC50 [7]: 6.73 µM (active)

Structure (SMILES): CC(=O)c1cc(C#N)c(SCc2ccccn2)nc1C
- IC50 [8]: 5.73 µM (not active)

Structure (SMILES): O=C(O)CCC(=O)NCCc1c(/C=C2/C(=O)NC(=S)N(Cc3ccc(F)cc3)C2=O)[nH]c2ccccc12
- IC50 [8]: 1.42 µM (active)
- IC50 [9]: > 100 µM (active)
- IC50 [7]: 55.4 µM (active)

Structure (SMILES): Cc1cc2cc(CCNC(=O)c3ccc(S(=O)(=O)N4CCOCC4)cc3)c(O)nc2cc1C
- IC50 [10]: 11.1 µM (active)

Structure (SMILES): O=C(CCCn1c(=O)[nH]c2cc(Cl)ccc2c1=O)NCC1CCCO1 (stereo not drawn)
- IC50 [1]: > 31 µM (not active)

Structure (SMILES): COc1ccc(CCNc2cc(N3CCN(C(=O)c4ccccc4OC)CC3)ccc2[N+](=O)[O-])cc1OC
- AC50 [11]: 2.63 µM (active)
- AC50 [12]: 2.98 µM (active)
- AC50 [13]: 10.5 µM (active)
- AC50 [14]: 4.67 µM (active)

Structure (SMILES): CC[C@]1(C(=O)OC)[C@H]2C(=O)N(Cc3ccccc3)C(=O)[C@H]2[C@H]2CN=C(SCc3ccc(C(=O)OC)cc3)N21
- EC50 [15]: > 59.6 µM (inactive)
- EC50 [16]: > 59.6 µM (inactive)

Structure (SMILES): Cc1ccc(S(=O)(=O)NCCC(=O)NCc2ccccc2)cc1
- AC50 [5]: inconclusive
- AC50 [17]: 17.8 µM (inconclusive)
- AC50 [18]: 25.1 µM (inconclusive)
- AC50 [4]: 25.1 µM (inconclusive)

Structure (SMILES): CSc1nc(N2CCN(Cc3ccc4c(c3)OCO4)CC2)c2ccccc2n1
- AC50 [11]: 24.1 µM (active)
- AC50 [12]: > 70 µM (inactive)

Structure (SMILES): CCCCCOC(=O)C1=C(C)NC(=O)NC1c1ccc([N+](=O)[O-])cc1 (stereo not drawn)
- IC50 [19]: 9.26 µM (active)
- IC50 [20]: 14.9 µM (active)

Structure (SMILES): Cn1cc(C2=C(c3ccc(Cl)cc3Cl)C(=O)NC2=O)c2ccccc21 [SB-216763]
- EC50 [21]: 26 µM (active)
- AC50 [22]: 4.61 µM (active)
- EC50 [15]: > 59.6 µM (inactive)
- EC50 [16]: > 59.6 µM (inactive)
- AC50 [3]: 31.6 µM (inconclusive)
- EC50 [23]: 21.5 µM (inconclusive)
